Measurements published in US20250197387A1, “BCL-XL DEGRADERS AND USES THEREOF” (Kymera Therapeutics, Inc., priority 2021, published 2025).

Tests used:
Assay type in all cases: cell-based
[1] = tested on: Caki-2 cells; assay: CTG (CellTiter-Glo) cell viability assay, Caki-2; conditions: Homo sapiens, 72 h, 3 day incubation, read-out: CTG Chempartner - Caki-2 3 day: Average external-IC50
In short: (§1)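 MOLT-4 and Caki-2 cells were seeded at 10,000 per well and treated with a 9-point, 1:3 dilution series from 10 μM top concentration (0.2% DMSO). After 3 days at 37 °C, 5% CO2, viability was read by CellTiter-Glo luminescence and IC50 fitted by three-parameter logistic.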

[2] = tested on: MOLT-4 cells; assay: CTG (CellTiter-Glo) cell viability assay, MOLT-4; conditions: Homo sapiens, MOLT-4, 72 h, 3 day incubation, read-out: CTG Cell Viability Assay - MOLT-4 3 day: Average external-IC50
In short: as §1

[3] = target: T1, BCL-XL (Homo sapiens, UniProt Q07817); assay: Bcl-xL ELISA degradation in MOLT-4 cells, 6 h; conditions: for DC50: read-out: Bcl-xL ELISA in MOLT-4 degradation 6 h: Mean external-Abs DC50
T1 construct: endogenous in cells; host or cells: MOLT-4
Experimental: The letter codes for BCL-XL DC50 include: A (<0.01 μM); B (0.01-0.1 μM); C (>[…]); D (>0.5-1.0 μM); and E (>1.0 μM). The letter codes for Dmax % include A (>75%); B (50 to 75%); C (<50%).

T1 sequence (Q07817 whole entry): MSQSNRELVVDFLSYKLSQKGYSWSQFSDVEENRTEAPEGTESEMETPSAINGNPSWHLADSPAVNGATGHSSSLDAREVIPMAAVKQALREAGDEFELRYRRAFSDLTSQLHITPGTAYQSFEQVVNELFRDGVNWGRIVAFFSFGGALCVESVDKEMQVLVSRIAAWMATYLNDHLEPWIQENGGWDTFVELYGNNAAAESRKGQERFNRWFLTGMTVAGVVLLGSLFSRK

Row | SMILES | IC50 [1] | IC50 [2] | Dmax [3] | DC50 [3]
1 | Cc1cc(N(C)c2ccc(-c3cnn(CC45CC6CC(CC(C6)C4)C5)c3C)c(C(=O)NS(=O)(=O)CCCCC(=O)N[C@H](C(=O)N3C[C@H](O)C[C@H]3C(=O)NCc3ccc(-c4scnc4C)cc3)C(C)(C)C)n2)nnc1Nc1nc2ccccc2s1 [I-371] | > 10000 nM | 100 to 1000 nM | > 75% | < 10 nM
2 | Cc1ncsc1-c1ccc(CNC(=O)[C@@H]2C[C@@H](O)CN2C(=O)[C@@H](NC(=O)C2(F)CC2)C(C)(C)C)c(OCCN2CCN(CC[C@H](CSc3ccccc3)Nc3ccc(S(=O)(=O)NC(=O)c4ccc(N5CC6(CC(N7CCC[C@H]7c7ccccc7C7CC7)C6)C5)cc4)cc3S(=O)(=O)C(F)(F)F)CC2)c1 [I-400] | > 10000 nM | 100 to 1000 nM | > 75% | 10 to 100 nM
3 | C#Cc1ccc([C@H](C)NC(=O)[C@@H]2C[C@@H](O)CN2C(=O)[C@@H](NC(=O)CCCCCS(=O)(=O)NC(=O)c2nc(N(C)c3cc(C)c(Nc4nc5ccccc5s4)nn3)ccc2-c2cnn(CC34CC5CC(CC(C5)C3)C4)c2C)C(C)(C)C)c(O)c1 [I-475] | > 10000 nM | < 100 nM | > 75% | < 10 nM
4 | Cc1ncsc1-c1ccc([C@H](C)NC(=O)[C@@H]2C[C@@H](O)CN2C(=O)[C@@H](NC(=O)C2CCN(c3cccc(S(=O)(=O)NC(=O)c4nc(N5CCc6cccc(C(=O)Nc7nc8ccccc8s7)c6C5)ccc4-c4cnn(CC5CCCCC5)c4C)c3)CC2)C(C)(C)C)cc1 [I-380] | 1000 to 10000 nM | < 100 nM | > 75% | < 10 nM
5 | Cc1cc(N(C)c2ccc(-c3cnn(CC45CC6CC(CC(C6)C4)C5)c3C)c(C(=O)NS(=O)(=O)CCCCCC(=O)N[C@H](C(=O)N3C[C@H](O)C[C@H]3C(=O)NCc3ccc4c(c3)c(C)nn4C)C(C)(C)C)n2)nnc1Nc1nc2ccccc2s1 [I-484] | > 10000 nM | < 100 nM | > 75% | < 10 nM
6 | Cc1ncsc1-c1ccc(CNC(=O)[C@@H]2C[C@@H](O)CN2C(=O)[C@@H](NC(=O)CCc2cccc(S(=O)(=O)NC(=O)c3nc(N4CCc5cccc(C(=O)Nc6nc7ccccc7s6)c5C4)ccc3-c3cnn(CC4CCCCC4)c3C)c2)C(C)(C)C)cc1 [I-283] | 1000 to 10000 nM | < 100 nM | > 75% | < 10 nM
7 | Cc1ncsc1-c1ccc(CNC(=O)[C@@H]2C[C@@H](O)CN2C(=O)[C@@H](NC(=O)C2CN(c3ccc(S(=O)(=O)NC(=O)c4nc(N5CCc6cccc(C(=O)Nc7nc8ccccc8s7)c6C5)ccc4-c4cnn(CC5CCCCC5)c4C)cc3F)C2)C(C)(C)C)cc1 [I-330] | 1000 to 10000 nM | < 100 nM | 50 to 75% | 10 to 100 nM
8 | Cc1ncsc1-c1ccc(CNC(=O)[C@@H]2C[C@@H](O)CN2C(=O)[C@@H](NC(=O)CCCc2cccc(S(=O)(=O)NC(=O)c3nc(N4CCc5cccc(C(=O)Nc6nc7ccccc7s6)c5C4)ccc3-c3cnn(CC4CCCCC4)c3C)c2)C(C)(C)C)cc1 [I-337] | > 10000 nM | < 100 nM | > 75% | < 10 nM
9 | C#Cc1ccc(CNC(=O)[C@@H]2C[C@@H](O)CN2C(=O)[C@@H](NC(=O)CCN(C)CCS(=O)(=O)NC(=O)c2nc(N(C)c3cc(C)c(Nc4nc5ccccc5s4)nn3)ccc2-c2cnn(CC34CC5CC(CC(C5)C3)C4)c2C)C(C)(C)C)cc1 [I-430] | > 10000 nM | < 100 nM | > 75% | 10 to 100 nM
10 | Cc1cc(C(C(=O)N2C[C@H](O)C[C@H]2C(=O)NCc2ccc(-c3scnc3C)cc2OCCN(C)C2CCN(C(=O)c3nc(N4CCc5cccc(C(=O)Nc6nc7ccccc7s6)c5C4)ccc3-c3cnn(CC4CCCCC4)c3C)CC2)C(C)C)on1 (stereo partly shown) [I-322] | 100 to 1000 nM | 100 to 1000 nM | 50 to 75% | 100 to 500 nM
11 | C#Cc1ccc([C@H](C)NC(=O)[C@@H]2C[C@@H](O)CN2C(=O)[C@@H](NC(=O)CCCCCS(=O)(=O)NC(=O)c2nc(N(C)c3cc(C)c(Nc4nc5ccccc5s4)nn3)ccc2-c2cnn(CC(C)(C)C)c2C)C(C)(C)C)cc1 [I-473] | > 10000 nM | 1000 to 3000 nM | > 75% | 500 to 1000 nM
12 | C#Cc1ccc(CNC(=O)[C@@H]2C[C@@H](O)CN2C(=O)[C@H](NC(=O)CCCCCS(=O)(=O)NC(=O)c2nc(N3CCc4cccc(C(=O)Nc5nc6ccccc6s5)c4C3)ccc2-c2cnn(CC3CCCCC3)c2C)C(C)(C)CCO)cc1 [I-355] | > 10000 nM | 1000 to 3000 nM | > 75% | 100 to 500 nM
13 | C#Cc1ccc(CNC(=O)[C@@H]2C[C@@H](O)CN2C(=O)[C@@H](NC(=O)C2CN(c3ccc(S(=O)(=O)NC(=O)c4nc(N5CCc6cccc(C(=O)Nc7nc8ccccc8s7)c6C5)ccc4-c4cnn(CC5CCCCC5)c4C)cc3F)C2)C(C)(C)C)cc1 [I-358] | 1000 to 10000 nM | < 100 nM | > 75% | 10 to 100 nM
